Earlier results in patent US20070021605A1, “PROCESS AND COMPOSITION FOR MAKING OLANZAPINE FORM I” (priority 2005, published 2007).

Conditions: water, pH 6.8; free base

Cc1cc2c(s1)Nc1ccccc1N=C2N1CCN(C)CC1 [Olanzapine]
solubility: about 0.02 mg/ml
